From US20220175955A1, “PEPTIDE DISPLAY TO ANTIGEN PRESENTING CELLS USING LIPID VEHICLE” (Torque Therapeutics Inc., priority 2018, published 2022)

System: CD11c+ BMDCs
Test: Antigen presentation (MHC I:SIINFEKL) on antigen-pulsed BMDCs in vitro, flow cytometry
Assay type: cell-based, mouse
Settings: 1 μM epitope; later time points (48 h to 96 h); FIG. 1
Method: Bone marrow derived dendritic cells (BMDCs) were differentiated in vitro before antigen pulsing. Bone marrow cells were isolated from tibia and femur from C57bl/6 JrJ mice obtained from Janvier SAS. After sacrificing the mice by cervical dislocation, bones were isolated and kept in tissue storage solution (MACS Miltenyi). After a 2 min sterilization in 70% ethanol, bones were cut at each end with a scalpel end flushed with medium by using a 29 g insulin syringe. Following isolation, bone marrow cells were cultured in complete RPMI 1640 medium supplemented with 20 ng/ml mouse recombinant GM-CSF. On day 3, cells were supplemented with fresh medium containing GM-CSF. On day 6, immature BMDCs were harvested, re-plated and incubated with 1 μM liposomal (MK062 or MK062 TMX) or soluble SIINFEKL epitope. BMDCs were harvested after 24 or 48 hours for flow cytometry analysis. […] After blocking for 5 min on ice, cells were stained with antibodies against the dendritic cell marker CD11c and assessed for antigen presentation by an antibody recognizing SIINFEKL presented on MHC I molecules (H-2kb). […]
[…] After blocking for 5 min on ice, cells were stained with antibodies against the dendritic cell marker CD11c and assessed for antigen presentation by an antibody recognizing SIINFEKL presented on MHC I molecules (H-2kb). […]

## SIINFEKL (Synthetic antigen)
  Antigen presentation (MFI of MHC:SIINFEKL in CD11c+ BMDCs): decreased markedly
